These results are taken from paper PMC9323797, “4-Substituted Thieno[3,2-d]pyrimidines as Dual-Stage Antiplasmodial Derivatives” (Pharmaceuticals, 2022).

Where two headings read alike, the source gives them in different places.

The test system of the experiment is P. falciparum K1. Description: Blood-stage antiplasmodial evaluation (SYBR Green I fluorescence, 72 h). In kind it is cell-based, Plasmodium falciparum. Conditions: for EC50: read-out: P. falciparum K1 EC50; for IC50: erythrocytic stage P. falciparum K1, read-out: IC50 (activity on Pf. K1). On the procedure: A K1 culture-adapted P. falciparum strain resistant to chloroquine, pyrimethamine, and proguanil was used in an in vitro culture. It was maintained in a continuous culture, as described previously by Trager and Jensen. Cultures were maintained in fresh A+ human erythrocytes at 2.5% hematocrit in a complete medium (RPMI 1640 with 25 mM HEPES, 25 mM NaHCO3, and 10% of A+ human serum) at 37 °C under a reduced O2 atmosphere (gas mixture: 10% O2, 5% CO2, and 85% N2). Parasitemia was maintained daily between 1 and 3%. The P. falciparum drug susceptibility test was carried out by comparing quantities of DNA in treated and control cultures of parasite in human erythrocytes, according to a SYBR Green I fluorescence-based method using a 96-well fluorescence plate reader. Compounds, previously dissolved in DMSO (final concentration less than 0.5% v/v), were incubated in a total assay volume of 200 μL (RPMI, 2% hematocrit and 0.4% parasitemia) for 72 h in a humidified atmosphere (10% O2 and 5% CO2) at 37 °C, in 96-well flat bottom plates. Duplicate assays were performed for each sample. After incubation, plates were frozen at […] for 24 h. Then, the frozen plates were thawed for 1 h at 37 °C. A total of 15 μL of each sample was transferred to 96-well flat-bottom non-sterile black plates (Greiner Bio-One, Kremsmünster, Austria) already containing 15 μL of the SYBR Green I lysis buffer (2X SYBR Green I, 20 mM Tris base pH 7.5, 20 mM EDTA, 0.008% w/v saponin, 0.08% w/v Triton X-100). Negative control treated by solvents (DMSO or H2O) and positive controls (chloroquine) were added to each set of experiments. Plates were incubated for 15 min at 37 °C and then read on a TECAN Infinite F-200 spectrophotometer with excitation and emission wavelengths at 485 and 535 nm, respectively. The concentrations of compounds required to induce a 50% decrease in parasite growth (EC50 K1) were calculated from three independent experiments.

Where [1] appears, read: Plasmodium falciparum, K1, 72 h.
Setting [2] is: Plasmodium falciparum, K1, 72 h, asexual blood stages, drug-resistant K1 strain, 72 h incubation, mean ± SD of three independent experiments.
[3] abbreviates: asexual blood stages, drug-resistant K1 strain, 72 h incubation, mean ± SD of three independent experiments.

As to `CCN(CC)CCCC(C)Nc1ccnc2cc(Cl)ccc12` (stereo not shown) [Chloroquine, reference compound], under setting [1], the EC50 is 0.8 ± 0.1 µM. For the compound `COc1nc(NC(C)(C)C)nc2cc(-c3ccc(C)cc3)sc12` [Compound 7a, N-(tert-butyl)-4-methoxy-6-(p-tolyl)thieno[3,2-d]pyrimidin-2-amine], under setting [2], the concentration giving a half-maximal response (EC50) came to 7.6 ± 0.9 µM. Still for that read-out and setting: as for `CCOc1nc(NC(C)(C)C)nc2cc(-c3ccc(C)cc3)sc12` [Compound 7b, N-(tert-butyl)-4-ethoxy-6-(p-tolyl)thieno[3,2-d]pyrimidin-2-amine], the figure is 5.1 ± 1.3 µM. Same read-out and setting: as for `Cc1ccc(-c2cc3nc(NC(C)(C)C)nc(Oc4ccccc4)c3s2)cc1` [Compound 8a, N-(tert-butyl)-4-phenoxy-6-(p-tolyl)thieno[3,2-d]pyrimidin-2-amine], the figure is greater than 10 µM; as for `Cc1ccc(Oc2nc(NC(C)(C)C)nc3cc(-c4ccc(C)cc4)sc23)cc1` [Compound 8b, N-(tert-butyl)-6-(p-tolyl)-4-(p-tolyloxy)thieno[3,2-d]pyrimidin-2-amine], greater than 10 µM. Same read-out and setting: next, `Cc1ccc(-c2cc3nc(NC(C)(C)C)nc(Sc4ccccc4)c3s2)cc1` [Compound 9a, N-(tert-butyl)-6-(p-tolyl)-4-(phenylthio)thieno[3,2-d]pyrimidin-2-amine]: 13.8 ± 1.7 µM. `Cc1ccc(Sc2nc(NC(C)(C)C)nc3cc(-c4ccc(C)cc4)sc23)cc1` [Compound 9b, N-(tert-butyl)-6-(p-tolyl)-4-(p-tolylthio)thieno[3,2-d]pyrimidin-2-amine]: the EC50 under setting [2] is 16.4 ± 1.9 µM. As to `Cc1ccc(-c2cc3nc(NC(C)(C)C)nc(NC(C)C)c3s2)cc1` [Compound 10e, N^2-(tert-butyl)-N^4-isopropyl-6-(p-tolyl)thieno[3,2-d]pyrimidine-2,4-diamine], the EC50 under setting [2] stood at 2.4 ± 1 µM. The half-inhibitory concentration (IC50) (Plasmodium falciparum) was roughly 2 µM. Turning to `Cc1ccc(-c2cc3nc(NC(C)(C)C)nc(Nc4ccccc4)c3s2)cc1` [Compound 10h, N^2-(tert-butyl)-N^4-phenyl-6-(p-tolyl)thieno[3,2-d]pyrimidine-2,4-diamine], the EC50 under setting [2] was 2 ± 0.4 µM. Besides, under setting [3], the “P. falciparum K1 EC50” value was “some activity was maintained”.

Take `Cc1ccc(-c2cc3nc(NC(C)(C)C)nc(NN)c3s2)cc1` [Compound 10i, N-(tert-butyl)-4-hydrazino-6-(p-tolyl)thieno[3,2-d]pyrimidin-2-amine]: the EC50 under setting [2] came to 2.2 ± 0.3 µM. Further, for the setting “Plasmodium falciparum”, the IC50 was roughly 2 µM. For `Cc1ccc(-c2cc3nc(NC(C)(C)C)nc(N[C@@H](C)C(=O)[O-])c3s2)cc1.O.O.O.[Na+]` [Compound 10j, Sodium (S)-2-((2-(Tert-butylamino)-6-(p-tolyl)thieno[3,2-d]pyrimidin-4-yl)amino)-propanoate trihydrate], the EC50 under setting [1] was greater than 12.5 µM. In addition, the “P. falciparum K1 EC50” value under setting [3] was “loss of activity”. Consider `Cc1ccc(-c2cc3nc(NC(C)(C)C)nc(-c4ccc(C)cc4)c3s2)cc1` [Compound 11a, N-(tert-butyl)-4,6-di-p-tolylthieno[3,2-d]pyrimidin-2-amine], for which, under setting [2], the EC50 was greater than 31 µM. On the same count and under the same terms, next, `Cc1ccc(-c2cc3nc(NC(C)(C)C)nc(-c4cccc(C)c4)c3s2)cc1` [Compound 11b, N-(tert-butyl)-4-(m-tolyl)-6-(p-tolyl)thieno[3,2-d]pyrimidin-2-amine]: greater than 31 µM. On to `Cc1ccc(-c2cc3nc(NC(C)(C)C)nc(-c4ccccc4)c3s2)cc1` [Compound 11c, N-(tert-butyl)-4-phenyl-6-(p-tolyl)thieno[3,2-d]pyrimidin-2-amine], for which the EC50 under setting [2] is greater than 25 µM. Same read-out and setting: next, `Cc1ccc(-c2cc3nc(NC(C)(C)C)nc(-c4ccsc4)c3s2)cc1` [Compound 11d, N-(tert-butyl)-4-(thiophen-3-yl)-6-(p-tolyl)thieno[3,2-d]pyrimidin-2-amine]: greater than 25 µM.

Turning to `Cc1ccc(-c2cc3nc(NC(C)(C)C)nc(-c4ccncc4)c3s2)cc1` [Compound 11e, N-(tert-butyl)-4-(pyridin-4-yl)-6-(p-tolyl)thieno[3,2-d]pyrimidin-2-amine], under setting [2], the EC50 was 28.1 ± 7 µM. `Cc1ccc(-c2cc3nc(NC(C)(C)C)nc(-c4cccnc4)c3s2)cc1` [Compound 11f, N-(tert-butyl)-4-(pyridin-3-yl)-6-(p-tolyl)thieno[3,2-d]pyrimidin-2-amine]: the EC50 under setting [2] is greater than 10 µM. Regarding `Cc1ccc(-c2cc3nc(NC(C)(C)C)nc(C#Cc4ccccc4)c3s2)cc1` [Compound 12a, N-tert-butyl-6-(4-methylphenyl)-4-(phenylethynyl)thieno[3,2-d]pyrimidin-2-amine], the EC50 under setting [2] was 20.1 ± 4.1 µM. For the compound `Cc1ccc(-c2cc3nc(NC(C)(C)C)nc(C#CC4CC4)c3s2)cc1` [Compound 12b, N-tert-butyl-4-(cyclopropylethynyl)-6-(4-methylphenyl)thieno[3,2-d]pyrimidin-2-amine], the EC50 under setting [2] came to 15.7 ± 2.4 µM. As for `Cc1ccc(-c2cc3nc(NC(C)(C)C)nc(C#CCCO)c3s2)cc1` [Compound 12c, 4-[2-tert-butylamino-6-(4-methylphenyl)thieno[3,2-d]pyrimidin-4-yl]but-3-yn-1-ol], under setting [2], the EC50 was 14.2 ± 2.8 µM. As for `Cc1ccc(-c2cc3nc(NC(C)(C)C)ncc3s2)cc1` [Compound 13, N-(Tert-butyl)-6-(p-tolyl)thieno[3,2-d]pyrimidin-2-amine], under setting [2], the EC50 was found to be 26.1 ± 2.2 µM. Further, under setting [3], the “P. falciparum K1 EC50” value is “inactive”. As for “N-(tert-butyl)-4-(1-methylhydrazinyl)-6-(p-tolyl)-3,4-dihydrothieno[3,2-d]pyrimidin-2-amine [Compound 10b]”, the IC50 is roughly 2 µM. Moreover, the EC50 under setting [3] amounted to 2.2 ± 0.3 µM.
